Measurements as given in US20040054130A1, “Insulin potentiating peptides” (priority 2000, published 2004).
Square brackets hold non-standard residues; d marks the D form. Ends that are not written are not given here.

How the values were obtained:
[1] = test system: adipose tissue; assay: Ex vivo glucose transport assay in adipose tissue of chronically treated mice; type: cell-based, mouse; conditions: after 14 days treatment
Experimental: (c) Glucose transport assay Glucose transport in adipose tissue extracted from saline-treated and chronically peptide 3-treated mice was analyzed by an ex vivo glucose uptake assay. Adipose tissues was harvested from mice which had received saline (n=5) or peptide 3 (n=4) in the IPGTT, and used for a glucose transport assay. Mice were sacrificed by a lethal injection of pentabarbitone to the heart. Epididymal fat from male mice or peritoneal fat from female mice was used. Adipose tissues were rinsed in saline and then sliced into even pieces for weight determination. Tissues were placed in flasks and incubated in 2 ml KRB buffer (pH 7.4) containing D-glucose (10 mM final concentration) with vigorous agitation at 37° C. for 2 h under an atmosphere of carbogen. All samples were then placed on ice to reduce glycolysis. Tissues were removed from flasks, and the remaining solutions were analyzed for glucose concentrations using a glucose analyzer. Glucose uptake by each tissue sample was calculated, and compared to tissue free buffer controls.

[2] = test system: Zucker (fa/fa) rat hemidiaphragm muscle; assay: In vitro glycogen synthesis (glucose incorporation into glycogen) in hemidiaphragm muscle with exogenous insulin; type: cell-based
Experimental: In vitro insulin-potentiating effects of the synthetic peptide analogues were assessed by measuring the rates of exogenous glucose incorporation into glycogen in rat hemidiaphragms (Lim et al, 1992). Hemidiaphragms from overnight-fasted Zucker fatty(fa/fa) female rats were dissected, and divided into segments of approximate 35-50 mg each. Tissues from the same rat were used for all groups. The tissue was incubated in 2 ml of Krebs-Ringer bicarbonate (KRB) buffer (pH 7.4) containing [^14C]glucose (5.5 mM, final specific activity 0.05 mCi/mmol) under an atmosphere of 95% 02-5% CO2 at 37° C. for 1.5 hr. After incubation, tissues were removed, washed with cold buffer and blotted. Tissues were digested, the muscle glycogen was precipitated and the ^14C-radioactivity was counted in a Wallac 1410 liquid scintillation counter. The biological activity of peptide analogues was measured as the rate of mmol glucose incorporation into muscle glycogen/g tissue/hr.
The sensitivity of hemidiaphragm muscle tissue to insulin (0.1-100 mU/ml) on glycogen synthesis was first analyzed. The dose response curves for peptide analogues on the insulin-potentiating effect to glycogen synthesis were then measured using cumulative increasing concentrations (10^−3 10 μmol/ml) of peptides in the presence of insulin (1 mU/ml). The biological activity of each peptide analogue was measured as the rate of glucose incorporation into muscle glycogen (μmol/g tissue/hr), and represented by the mean±SEM from eight determinations.
To determine the insulin-potentiating effect of the peptide analogues, the rates of incorporation of glucose into muscle glycogen were measured. The rates of glycogen synthesis (μmol/g tissue/hr) were 0.52±0.05, 0.60±0.04, 1.27±0.06 and 1.52±0.07 inresponse to 0.33, 1, 3.33 and 10 mU/ml insulin respectively, as shown in FIG. 1.
The insulin-potentiating effect of the peptide analogues was then observed by studying their dose response. curves for glucose incorporation into glycogen in the presence of 1 mU/ml exogenous insulin. The effects of peptides 1, 3, 4, 6, 7, 8 and 10 were evident at doses higher than 0.01 μmol/ml, and continued to increase with increasing peptide concentration to 1 μmol/ml, as shown in FIGS. 2A and 2B.
The activity of each analogue was assessed by in vitro measurement of glycogen synthesis in muscle, as described above.

[3] = test system: Zucker fatty (fa/fa) rats; assay: Basal blood glucose determination after i.p. peptide; type: in vivo, rat; conditions: 10 μmol/kg body weight i.p., over 150 min, vs saline
Experimental: Overnight-fasted Zucker fatty(fa/fa) female rats were anaesthetized with sodium pentobarbitone (60 mg/kg body weight). After 45 min, basal blood glucose samples were taken from the tail vein, followed immediately by intraperitoneal (i.p.) injection of saline (control) or the peptide analogue (test, 10 μmol/kg body weight) in 0.4 ml of saline. Blood samples were taken at 15, 30, 60, 90, 120, 150 minutes after injection, and the blood glucose level in each sample was measured immediately by the glucose oxidase method, using a YSI Model-2300 STAT glucose analyzer (Yellow Spring, Ohio). Six animals for each group were used.
The reduction of basal blood glucose levels in animals by different peptide analogues administered intraperitoneally (i.p.)at a dose of 10 μmol/kg body weight was measured for over 150 min.

[4] = test system: Zucker fatty (fa/fa) female rats; assay: Acute oral administration, blood glucose; type: in vivo, rat
Experimental: Overnight fasted Zucker fatty (fa/fa) female rats were administered peptide 3 (ADD9903) by oral gavage at a concentration of 20 μmol/kg of body weight. Rats were then immediately anaesthetized with nembutal administered intraperitoneally in order to avoid variations arising due to activity of the rats. Blood samples were collected from the tail vein at time 0 min (immediately after oral gavage and before anaesthetic), 60 min, 120 min and 180 min, and analyzed for blood glucose by the glucose oxidation method using a YSI Model-2300 STAT glucose analyzer (Yellow Spring, Ohio). Six rats were analyzed for each of the control and treated groups.

[5] = test system: C57BL/6J ob/ob mice; assay: Plasma insulin radioimmunoassay after chronic administration; type: in vivo, mouse; conditions: after 14 days treatment
Experimental: Mice selected for this experiment were initially fasted for 4 hours, then anaesthetized with a single injection of sodium pentobarbitone (35 mg/kg). A blood sample was collected from each mouse by eye-bleed for the assessment of plasma glucose and insulin levels (day 0). Collected blood samples were stored at −20° C. until analysis was performed. A single Alzet mini-pump (#1002, Alzet, USA) containing either sterile saline (100 μl; n=14) or peptide 3 (20 μmol/kg dissolved in 100 μl saline; n=14) was inserted under the skin between the scapula of the mice. The incision was clamped and disinfected using iodine. The pumps were left for 14 days, and 5 body-weight, and food measurements were recorded during this period, at days 0, 4, 7, 10 and 14. Blood samples were collected on day 0 and 14 days post-saline (n=5) or peptide 3 (n=4) administration for plasma glucose analysis. The results reported below are expresses as mean +/− standard error. (a) Plasma insulin Plasma insulin levels were quantitatively determined in ob/ob mice, using an insulin radioimmunoassay kit (Linco Research Inc. USA) according to the manufacturer's instructions.

Substance: Arg-D-Ala-Phe-Phe-NH2 (R[dA]FF-NH2; N-terminus assumed; SMILES C[C@@H](NC(=O)[C@@H](N)CCCNC(=N)N)C(=O)N[C@@H](Cc1ccccc1)C(=O)N[C@@H](Cc1ccccc1)C(N)=O) [Peptide 3]
- more glucose transported than adipose tissue from saline-treated mice [1]: 38%
- glucose transport by adipose tissue ([1]; 10 mM D-glucose, 2 h, 37° C.): 1.67±0.18 nmol/mg tissue/h
- maximum stimulation of the rate of glycogen synthesis ([2]; 10 μmol/ml peptide, 1 mU/ml insulin): up to 1.44±0.04 mol/g tissue/hr
- in vitro glycogen synthesis ([2]; 0.01-1 μmol/ml peptide (p<0.05), FIG. 2A): significantly increased
- Activity ([2]; Table 6 (corrected), summary of Table 5): active
- hypoglycaemic effect (reduction of basal blood glucose level) [3]: significant hypoglycaemic effects
- hypoglycaemic effect (reduction of basal blood glucose level) ([3]; listed as Arg-D-Ala-Phe-Phe amide): Increased potency
- decrease in blood glucose, oral compared to intraperitoneal administration ([4]; at 120 min (P<0.005)): more profound decrease
- time of maximal decrease in blood glucose ([4]; oral gavage 20 μmol/kg (P<0.005)): 120 min
- blood glucose levels compared to control rats ([4]; oral gavage 20 μmol/kg, significant from 60 min (P<0.05)): significantly reduced
- plasma insulin level [5]: 17.10 ± 5.99 ng/mL
